Laboratory results reported in PMC6158327, “Negative Allosteric Modulators of mGlu7 Receptor as Putative Antipsychotic Drugs” (Frontiers in Molecular Neuroscience, 2018).
pIC50: −log10 of the molar value.

Tests used:
Cytochrome P450 2B6 = molecular target: T1, Cytochrome P450 2B6 (Homo sapiens, UniProt P20813); test: Cytochrome P450 inhibition, 2B6; format: in vitro ADME
T1 sequence (P20813 1-491): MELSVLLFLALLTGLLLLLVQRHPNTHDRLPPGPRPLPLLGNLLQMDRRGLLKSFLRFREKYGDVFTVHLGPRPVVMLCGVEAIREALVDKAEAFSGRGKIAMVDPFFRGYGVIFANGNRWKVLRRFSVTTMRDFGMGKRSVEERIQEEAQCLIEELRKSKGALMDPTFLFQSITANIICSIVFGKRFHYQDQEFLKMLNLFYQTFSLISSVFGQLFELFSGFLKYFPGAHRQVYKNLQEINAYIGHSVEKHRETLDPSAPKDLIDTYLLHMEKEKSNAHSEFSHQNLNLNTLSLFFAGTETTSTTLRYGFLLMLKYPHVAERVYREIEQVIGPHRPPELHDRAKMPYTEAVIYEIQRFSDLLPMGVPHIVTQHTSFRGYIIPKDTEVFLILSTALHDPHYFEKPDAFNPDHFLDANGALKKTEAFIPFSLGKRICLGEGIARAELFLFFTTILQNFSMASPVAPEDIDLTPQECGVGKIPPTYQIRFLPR

mGlu7 receptor = molecular target: T2, mGlu7 receptor (Homo sapiens, UniProt Q14831); test: HTRF cAMP assay: potentiation of forskolin action without agonist (inverse agonist properties); format: cell-based; settings: T-REx 293 cells, 5 μM forskolin, n = 3, read-out: IC50, potentiation of forskolin action (elevating cAMP concentration), inverse agonist properties
T2 construct: expressed in transfected cells
Experimental: A homogeneous time-resolved fluorescence (HTRF) cAMP dynamic 2 (Cisbio, Codolet, France) assay was performed as previously described ([Chruścicka et al., 2015]) with recombinant cell lines. Briefly, HEK 293 T-REx cells stably expressing mGlu7 receptor, were collected and suspended in Hanks-HEPES buffer. The cell suspension was added to compounds solution with 5 μM of forskolin (final concentration). After 5 min incubation in 37°C, 5 μl of cAMP-d2 conjugate in lysis buffer was added and mixed with the 10 μl cell suspension by means of an automated pipetting system (Tecan Evo 200, Tecan, Mannedorf, Switzerland). Next, 5 μl anti-cAMP cryptate conjugate was added and the fluorescence at 620 and 665 nm was read after 1 h (Tecan Infinite M1000). The results are shown as the 665 nm/620 nm ratio multiplied by 10^4. The detected signal was inversely proportional to the concentration of cAMP in the sample. […] Each experiment was performed three times (n = 3), and each data point was in triplicate.
Both compounds dose-dependently potentiated forskolin action, elevating cAMP concentration in the T-REx 293 cells (Figure 2B). […] This effect was not observed for an antagonist of mGluR7 – XAP044.

[1] = system: MK-801-induced hyperactivity; test: MK-801-induced hyperactivity; format: in vivo, Albino Swiss mice; settings: 30 min prior to MK-801 (0.35 mg/kg, i.p.), mice
Experimental: The locomotor activity was recorded individually for each animal in OPTO-M3 locomotor activity cages (Columbus Instrument) linked online to a compatible PC activity, as described previously by [Woźniak et al., 2016b]. Each cage (13 cm × 23 cm × 15 cm) was surrounded with an array of photocell beams. […] The locomotor activity was measured for 60 min immediately after MK-801 administration.

[2] = system: prepulse-induced inhibition of the acoustic startle response; test: Prepulse inhibition of the acoustic startle response; format: in vivo, Wistar rats; settings: rats; for Effect on MK-801-induced disruption of prepulse inhibition: 30 min prior to MK-801 (0.3 mg/kg)
Experimental: The procedure was performed according to [Czyrak et al., 2003]. On the day before the experiment, the animals were subjected to a single startle session consisting of two trials, each presented 20 times during the session. During the first trial, a 120 dB, 40 ms pulse was presented, and on the second trial this pulse was preceded by a 75 dB, 20 ms prepulse. On the day of the experiment, the animals were habituated to the background white noise (65 dB) for 5 min (which continued throughout the test), after that the startle session was carried out as described above. Startle response amplitude was defined as the difference between the maximum force detected during a recording window and the force measured immediately before the stimulus onset (the threshold was set at 10 g). For each animal, the amplitudes were averaged separately for each type of trial. The PPI was calculated as the difference between the amplitudes of the pulse (P) and the prepulse + pulse (PP+P), divided by the amplitude of the pulse alone [([P - (PP + P)]/P)×100].

[3] = Pharmacokinetic study, brain concentration after i.p. injection; format: in vivo, mouse (Albino Swiss); settings: mouse; for AUC / Cmax / Tmax / half-life: Albino Swiss, ip, brain, 10 mg/kg i.p.
Experimental: The mice were then perfused with 0.1M PBS to remove remaining blood from the body, and the brains were taken out for the analysis. Blood was centrifuged at 2000 rpm for 10 min at 4°C, and the plasma was collected and frozen at -80°C for further analysis.
Plasma and tissue samples from all drug-treated animals were thawed at room temperature prior to use. Standard protocol of sample preparation: 200 μl acetonitrile was added to the eppendorfs with 50 μl of studied plasma samples or tissue homogenate. Samples were mixed for 5 min on a mixer at 25°C and 1400 rpm. Tubes were then centrifuged at 2000 × g for 15 min at 4°C. About 180 μl of each supernatant was transferred into a plate well. Finally, each sample was injected into the column.
In calibration curve – serial dilution method, plasma was spiked with standard at different concentration levels. Acetonitrile was added. Mixed, centrifuged supernatant was taken.
Plasma and tissue samples from all drug-treated animals at selected time points are analyzed using previously developed a non-validated liquid chromatography-tandem mass spectrometry (LC-MS)/MS method.
LC/MS analysis was carried on a Bruker amaZon SL mass spectrometer using positive/ negative ion ESI mode. Chromatographic separation was achieved on a Ascentis Express C18 column, (5 cm × 2.1 mm, […], Supelco Technologies) at room temperature with a thermostatted column oven. A gradient elution of eluents A [acetonitrile (LiChrosolv, Reag. Ph Eur) +0.1% formic acid (Sigma–Aldrich, 98–100%)] and B (water +0.1% formic acid) was used for separation. The flow rate was set at 1 ml/min. The injection volume was 20 μl, and the time of injection was 4 min.
An Ion trap mass spectrometer (Bruker amaZon SL) was equipped with an electrospray source, operating in the positive/negative ion mode. Data were collected and processes using Bruker Quant Analysis software. Quantification of analytes was performed in SIM mode.

[4] = system: DOI-induced head twitches; test: DOI-induced head twitches; format: in vivo, Albino Swiss mice; settings: mice; for Effect on DOI-induced head twitches, acute: 30 min before DOI (2.5 mg/kg)
Experimental: The experiment was performed according to previously described procedure ([Wierońska et al., 2012], [2013]). Immediately after a 30 min acclimatization period, DOI (2.5 mg/kg, i.p.) was administered in order to induce head twitches. The number of head twitches was then counted for 20 min. […]

T2 sequence (Q14831 35-915): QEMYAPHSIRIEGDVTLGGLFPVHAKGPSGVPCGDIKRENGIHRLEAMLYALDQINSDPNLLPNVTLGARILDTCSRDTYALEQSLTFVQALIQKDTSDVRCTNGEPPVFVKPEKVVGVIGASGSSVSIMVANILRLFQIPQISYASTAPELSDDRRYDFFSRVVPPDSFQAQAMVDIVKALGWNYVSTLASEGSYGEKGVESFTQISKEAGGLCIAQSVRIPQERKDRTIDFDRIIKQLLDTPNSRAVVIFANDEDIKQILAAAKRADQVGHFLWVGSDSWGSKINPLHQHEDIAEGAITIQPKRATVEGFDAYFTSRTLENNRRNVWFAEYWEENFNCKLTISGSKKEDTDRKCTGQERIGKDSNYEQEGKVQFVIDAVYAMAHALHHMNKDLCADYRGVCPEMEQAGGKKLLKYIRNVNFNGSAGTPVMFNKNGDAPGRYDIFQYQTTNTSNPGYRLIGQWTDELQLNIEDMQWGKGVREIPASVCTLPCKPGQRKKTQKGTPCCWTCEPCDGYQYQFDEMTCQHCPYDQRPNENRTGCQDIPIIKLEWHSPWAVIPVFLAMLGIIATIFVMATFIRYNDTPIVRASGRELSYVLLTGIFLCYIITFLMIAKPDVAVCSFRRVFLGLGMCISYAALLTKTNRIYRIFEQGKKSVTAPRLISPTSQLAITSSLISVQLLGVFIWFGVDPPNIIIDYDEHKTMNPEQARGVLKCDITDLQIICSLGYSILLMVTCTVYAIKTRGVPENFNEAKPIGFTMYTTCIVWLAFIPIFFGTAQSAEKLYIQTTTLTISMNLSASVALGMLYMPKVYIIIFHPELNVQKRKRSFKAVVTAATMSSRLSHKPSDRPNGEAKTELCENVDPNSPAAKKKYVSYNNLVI

Row | Structure (SMILES) | pIC50 (Cytochrome P450 2B6) | pIC50 (mGlu7 receptor) | Effect on MK-801-induced hyperactivity ([1]; 15 mg/kg i.p.) | Concentration in brain ([3]; 0,5 h after 10 mg/kg i.p.) | Concentration in brain ([3]; 0,25 h after 10 mg/kg i.p.) | Concentration in brain ([3]; 1 h after 10 mg/kg i.p.) | Concentration in brain ([3]; 2 h after 10 mg/kg i.p.) | AUC [3] | Cmax [3] | Tmax [3] | half-life [3] | Effect on DOI-induced head twitches, chronic (10 days) administration ([4]; 5 mg/kg) | other results
1 | CCc1nc2c(o1)CC(c1ccc(C)cc1C)CC2=O (stereo not drawn) [ADX71743, 6-(2,4-Dimethylphenyl)-2-ethyl-6,7-dihydro-4(5H)-benzoxazolone] | < 5.00 | 6.66 | decreased MK-801-induced hyperactivity in a statistically significant way | 2,09 μM | 3,38 μM | 0,79 μM | 0,09 μM | 2.27 µM·h | 3.38 µM | 15 min | 20.4 min | statistical effect | Effect on MK-801-induced hyperactivity ([1]; 5 mg/kg i.p.): decreased MK-801-induced hyperactivity in a statistically significant way; Effect on MK-801-induced disruption of prepulse inhibition ([2]; 2.5 mg/kg): inhibited MK-801-induced disruption in PPI; Effect on DOI-induced head twitches, chronic (10 days) administration ([4]; 2.5 mg/kg): statistical effect
2 | COc1ccc(-c2cc3onc(-c4ccncc4)c3c(=O)n2C)cc1 [MMPIP, 6-(4-Methoxyphenyl)-5-methyl-3-(4-pyridinyl)-isoxazolo(4,5-c)pyridin-4(5H)-one] | < 5.00 | 6.47 | significant reversal of MK-801-induced effect | 5,42 μM | 3,63 μM | 2,44 μM | 1,79 μM | 8.98 µM·h | 5.42 µM | 30 min | 105 min | statistically significant effect | Prepulse-induced inhibition of the acoustic startle response, drug given alone ([2]; 10 mg/kg given alone, effect not statistically significant): 137 % of control; Effect on MK-801-induced disruption of prepulse inhibition ([2]; all doses (5, 10, and 15 mg/kg)): not antagonized; Effect on DOI-induced head twitches, acute ([4]; 5 mg/kg i.p.): significantly reduced DOI-induced head twitches; Effect on DOI-induced head twitches, acute ([4]; 10 mg/kg i.p.): significantly reduced DOI-induced head twitches; Effect on DOI-induced head twitches, chronic (10 days) administration ([4]; 10 mg/kg): statistically significant effect; Effect on DOI-induced head twitches, acute ([4]; 15 mg/kg i.p.): significantly reduced DOI-induced head twitches
